{
  "source": "patent EP4813376A1",
  "about": "“PHARMACEUTICAL COMPOSITION FOR PREVENTION OR TREATMENT OF BREAST CANCER” (Astrion Inc., priority 2023, dated 2025)",
  "key": {"[1]": {"system": "six breast cancer cell lines (SUM149, BCX010, BT20, MDA-MB-231-LM3, CAL51, PyMT-N)", "assay": "colony formation test", "type": "cell-based, human", "conditions": "0.25 µM, 0.5 µM and 1 µM, 11 to 14 days, all six cell lines, FIGS. 2A to 2C", "experimental": "To confirm the proliferation inhibitory effect of the compound of the present invention on breast cancer cells, a colony formation test was conducted. Specifically, six breast cancer cell lines (SUM149, BCX010, BT20, MDA-MB-231-LM3, CAL51, PyMT-N) were plated in a 6-well cell culture plate at a density of 250 or 1,000 cells per well. On the next day, the cell culture medium was removed and replaced with a cell culture medium containing compound AON-MG23 of the present invention at concentrations of 0 µM, 0.25 µM, 0.5 µM, and 1 µM. After culturing the cells for 11 to 14 days, the resulting cell colonies were stained and photographed, and then the cell colonies were counted and analyzed using Image J software."}, "MDA-MG231-LM3 cells": {"system": "MDA-MG231-LM3 cells", "assay": "Transwell membrane filter migration assay", "type": "cell-based, human", "conditions": "cells pre-treated with 0.5 µM, eight hours, FIG. 6", "experimental": "Breast cancer cell line MDA-MG231-LM3 cells pre-treated with 0.5 µM of compound AON-MG23 of the present invention and cells that were not treated were prepared. […] The membrane filter seeded with the cells was placed into a 24-well plate supplemented with a cell culture medium containing fetal bovine serum and cultured for eight hours in an incubator at 37°C and 5% CO2. Cells that migrated to the bottom surface of the membrane filter were stained and photographed under a microscope, and counted and analyzed using Image J software."}, "MDA-MB-231 cells [2]": {"system": "MDA-MB-231 cells", "assay": "cell migration assay in SPLScar Block plates", "type": "cell-based", "conditions": "Homo sapiens, 24 hours, FIG. 4, read-out: inhibition of migration of MDA-MB-231 cells compared to the control group", "experimental": "Human breast cancer cell line MDA-MB-231 cells were seeded in SPLScar Block plates (SPL LIFE SCIENCES) at a density of 7 x 10^4/well and cultured for 24 hours. […], the blocks were removed, and at the same time, compound AON-MG23 of the present invention was applied at various concentrations. Thereafter, cells were cultured in a CO2 incubator at 37 °C for 24 hours. The cells were treated with the compound of the present invention at various concentrations of 0 µM, 0.5 µM, 1 µM, 2 µM, and 4 µM. Photographs were taken before and after each culture, and the migration distance of the cells was measured using Image J software. Based on the results, the inhibition of the cell migration was analyzed."}, "HCC1806": {"system": "HCC1806", "assay": "SRB assay with Bliss synergy scoring, combination with paclitaxel", "type": "cell-based, human", "conditions": "AON-MG23 combined with paclitaxel, HCC1806, five days co-treatment, score > 0 indicates a synergistic effect, FIG. 10B", "experimental": "(§1) The combination effect of compound AON-MG23 of the present invention was confirmed using Bliss scoring based on the results of the sulforhodamine B assay (SRB assay). Specifically, human breast cancer cell lines SUM149 and HCC1806 were plated in a 96-well cell culture plate at a density of 1 x 10^3 cells/well. On the next day, paclitaxel, the drug to be tested for the combination effect with compound AON-MG23 of the present invention, was diluted to concentrations for testing, and cells were cultured for 24 hours. After carefully removing the cell culture medium, the cells were co-treated with AON-MG23 and paclitaxel at different concentrations and cultured for five days. […] The absorbance of the dissolved solution was measured at […] using a plate reader. The measured absorbance values were compared to the control group, converted into percentages, and saved in an Excel file format. […] The presence of a synergistic effect was evaluated according to the following criteria based on relevant literature (Bliss, C. I. (1939). The toxicity of poisons applied jointly. Annals of Applied Biology, 26(3), 585-615.): a score > 0 indicates a synergistic effect; a score = 0 indicates an independent effect; and a score < 0 indicates an antagonistic effect."}, "SUM149": {"system": "SUM149", "assay": "SRB assay with Bliss synergy scoring, combination with paclitaxel", "type": "cell-based, human", "conditions": "AON-MG23 combined with paclitaxel, SUM149, five days co-treatment, score > 0 indicates a synergistic effect, FIG. 10A", "experimental": "as §1"}, "[3]": {"system": "four breast cancer cell lines (SUM149, BCX010, BT20, MDA-MB-231-LM3)", "assay": "soft agar assay (tumorigenicity)", "type": "cell-based", "conditions": "Homo sapiens, 336 h, 100 nM, 500 nM, 1000 nM tested, two weeks, FIGS. 3A and 3B, read-out: concentration from which tumorigenicity was inhibited", "experimental": "To confirm the tumorigenicity inhibitory effect of the compound of the present invention on breast cancer cells, an […] soft agar assay was performed. Specifically, 0.5% agar or 0.7% agar was added to cell culture media diluted with the compound of the present invention at concentrations of 0 nM, 100 nM, 500 nM, and 1000 nM. 2 ml of 0.5% agar containing the compound of the present invention at various concentrations was added to a 6-well cell culture plate and solidified at room temperature. Thereafter, 1 ml of 1 x 10^4 cells of four breast cancer cell lines (SUM149, BCX010, BT20, MDA-MB-231-LM3) and 1 ml of 0.7% agar containing the compound of the present invention at various concentrations were mixed in a 1:1 ratio to prepare a 0.35% solution, and 2 ml of this solution was placed on top of the solidified 0.5% agar. The mixture was then solidified at room temperature until the upper layer was fixed, and then cells were cultured in an incubator at 37 °C and 5% CO2 for two weeks. The formed cell clones were stained and photographed, and then the cell clones were counted and analyzed using Image J software."}, "MDA-MB-231": {"system": "MDA-MB-231", "assay": "Matrigel invasion assay (Transwell membrane insert), 24 hours", "type": "cell-based, human", "conditions": "0.5 µM and 1 µM, reduction dependent on concentration, FIG. 8", "experimental": "Breast cancer cell line MDA-MB-231 was seeded at a density of 6 x 10^4 cells/well on top of a membrane filter coated with Matrigel(Transwell membrane insert, Corning). Thereafter, the cells were treated with compound AON-MG23 of the present invention at concentrations of 0 µM (DMSO), 0.5 µM, and 1 µM, and cultured in a CO2 incubator at 37 °C for 24 hours. After 24 hours of culture, the cells on the bottom surface of the membrane filter were stained and photographed under a microscope, and counted and analyzed using Image J software."}, "MDA MB-231 cells": {"system": "MDA MB-231 cells", "assay": "Matrigel invasion assay (Transwell invasion chamber), 20 hours", "type": "cell-based, human", "conditions": "0.5, 1, 2, 4 µM, FIG. 7", "experimental": "Human breast cancer cell line MDA MB-231 cells were seeded at a density of 6 x 10^4 cells/well on top of a filter coated with Matrigel (Transwell invasion chamber, Corning), treated with compound AON-MG23 of the present invention (0, 0.5, 1, 2, 4 µM), and cultured in a CO2 in an incubator at 37 °C for 20 hours. After culture, cell fixation and staining were performed using the Diff-Quick stain Kit (Sysmex, Kobe, Japan). The stained cells were imaged under a microscope, and the cells were counted and statistically analyzed using Image J software."}, "MDA-MB-231 cells [4]": {"system": "MDA-MB-231 cells", "assay": "CCK assay, proliferation of breast cancer cells", "type": "cell-based, human", "conditions": "MDA-MB-231, 0.1 to 16 µM, 48 hours, absorbance at 450 nm, FIG. 1", "experimental": "Human breast cancer cell line MDA-MB-231 cells were plated in a 96-well plate at a density of 1 x 10^5 cells/well and cultured for 24 hours. Thereafter, the cells were treated with compound AON-MG23 of the present invention at various concentrations and cultured for 48 hours. The cells were treated with the compound of the present invention at various concentrations of 0 µM, 0.1 µM, 0.25 µM, 0.5 µM, 1 µM, 2 µM, 4 µM, 8 µM, and 16 µM. 10 µL of cell counting kit (CCK) reagent was added and allowed to react for one hour, and then the absorbance was measured at 450 nm."}},
  "data": [
    {"smiles": "COc1cc(N2CCC(N(C)C)CC2)ccc1Nc1ncc(Cl)c(Nc2ccccc2N(C2CC2)S(C)(=O)=O)n1", "note": "[AON-MG23, N-(2-((5-chloro-2-((4-(4-(dimethylamino)piperidin-1-yl)-2-methoxyphenyl)amino)pyrimidin-4-yl)amino)phenyl)-N-cyclopropylmethanesulfonamide]", "values": [
      {"measurement": "cell colony formation", "setting": "[1]", "value": "inhibited"},
      {"measurement": "cell migration compared to the untreated group", "setting": "MDA-MG231-LM3 cells", "value": "inhibited"},
      {"measurement": "inhibition at 0.5 µM", "setting": "MDA-MB-231 cells [2]", "value": 50, "unit": "%"},
      {"measurement": "Bliss synergy scoring", "setting": "HCC1806", "value": 9.249, "unit": "points"},
      {"measurement": "Bliss synergy scoring", "setting": "SUM149", "value": 18.743, "unit": "points"},
      {"measurement": "minimal effective concentration", "setting": "[3]", "value": "≥ 0.1", "unit": "µM"},
      {"measurement": "degree of penetration into Matrigel compared to the untreated control group", "setting": "MDA-MB-231", "value": "reduced degree of penetration into Matrigel"},
      {"measurement": "degree of penetration into Matrigel compared to the untreated control group", "setting": "MDA MB-231 cells", "value": "reduced degree of penetration into Matrigel"},
      {"measurement": "proliferation of breast cancer cells", "setting": "MDA-MB-231 cells [4]", "value": "inhibited"}
    ]}
  ]
}
